Values of other authors as cited in patent US9145409B2, “Benzhydryl derivatives” (CHIESI FARMACEUTICI S.p.A., priority 2013, dated 2015).

Columns and labels:
[1] = system: smoking model of COPD in mice
[2] = COPD patients, oral, given over 4 weeks
[3] = clinical trials, 500 mg once daily given over 12 months
[4] = patients with severe disease, frequent exacerbations and mucus hypersecretion

O=C(Nc1c(Cl)cncc1Cl)c1ccc(OC(F)F)c(OCC2CC2)c1 [roflumilast]
CXCL8 concentrations in sputum (COPD patients; [2]): significantly reduces | reduction of the numbers of neutrophils in sputum (COPD patients; [2]): 36% | clinical benefit as add-on (COPD patients; added to salmeterol or tiotropium): provides clinical benefit | exacerbations and quality of life (COPD patients; [3]): little effect in reducing exacerbations or improving quality of life | lung function (COPD patients; [3]): improved lung function in COPD patients to a small extent | improvement of FEV 1 (COPD patients; [4]): approximately 50 mL | reduction of exacerbation (COPD patients; [4]): about 15% | lung inflammation and emphysema [1]: inhibits lung inflammation and emphysema
